From ChEMBL document CHEMBL2412954, “Synthesis and characterization of time-resolved fluorescence probes for evaluation of competitive binding to melanocortin receptors” (Bioorg Med Chem, 2013)

Assays:
Melanocortin receptor 4 [1] = target: T1, Melanocortin receptor 4 (Homo sapiens, UniProt P32245); assay: Displacement of Eu-DTPA-PEGOMSH(7) from human MC4R expressed in […] cells after 1 hr by time-resolved fluorescence assay; type: cell-based, HEK293
Melanocortin receptor 4 [2] = target: T1, Melanocortin receptor 4; assay: Displacement of Eu-DTPA-PEGO-NDP-alpha-MSH-NH2 from human MC4R expressed in […] cells after 1 hr by time-resolved fluorescence assay; type: cell-based, HEK293

T1 sequence (P32245 whole entry): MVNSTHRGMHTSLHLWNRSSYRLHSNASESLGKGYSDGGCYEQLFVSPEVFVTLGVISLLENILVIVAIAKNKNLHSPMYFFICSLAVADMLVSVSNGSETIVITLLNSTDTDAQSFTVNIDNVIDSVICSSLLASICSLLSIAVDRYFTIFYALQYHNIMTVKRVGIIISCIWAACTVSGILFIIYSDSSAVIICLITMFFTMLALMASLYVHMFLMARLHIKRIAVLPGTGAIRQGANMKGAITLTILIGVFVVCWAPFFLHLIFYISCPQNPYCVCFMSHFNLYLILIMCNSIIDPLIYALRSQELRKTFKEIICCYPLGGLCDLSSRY

Compound	Ki (Melanocortin receptor 4 [1]; hek293)	Ki (Melanocortin receptor 4 [2]; hek293)	Ki (Melanocortin receptor 4 [1]; read-out: Ki)	Ki (Melanocortin receptor 4 [2]; read-out: Ki)
CC(C)C(O)CCC(C)C(O)CCC(C)C(O)CCC(OCCCCc1cn(CCCCCC(=O)N[C@@H](CO)C(N)=O)nn1)C(C)CCC(O)C(C)CCC(O)C(C)C (some centres not stated)	Not Active	Not Active	–	–
CC(C)C(O)CCC(C)C(O)CCC(C)C(CCC(O)C(C)CCC(O)C(C)CCC(OCCCCc1cn(CCCCCC(=O)N[C@@H](CO)C(N)=O)nn1)C(C)C)OCCCCc1cn(CCCCCC(=O)N[C@@H](CO)C(N)=O)nn1 (some centres not stated)	Not Active	Not Active	–	–
CCCC[C@H](NC(=O)[C@H](CO)NC(=O)CCCCCn1cc(CCCCOC(CCC(O)C(C)CCC(O)C(C)CCC(O)C(C)C)C(C)CCC(O)C(C)CCC(O)C(C)C)nn1)C(=O)N[C@@H](CCC(=O)O)C(=O)N[C@@H](Cc1cnc[nH]1)C(=O)N[C@H](Cc1ccccc1)C(=O)N[C@@H](CCCNC(=N)N)C(=O)N[C@@H](Cc1c[nH]c2ccccc12)C(N)=O (some centres not stated)	–	–	2.4 nM	33 nM
CCCC[C@H](NC(=O)[C@H](CO)NC(=O)CCCCCn1cc(CCCCOC(CCC(C)C(O)CCC(C)C(O)CCC(OCCCCc2cn(CCCCCC(=O)N[C@@H](CO)C(=O)N[C@@H](CCCC)C(=O)N[C@@H](CCC(=O)O)C(=O)N[C@@H](Cc3cnc[nH]3)C(=O)N[C@H](Cc3ccccc3)C(=O)N[C@@H](CCCNC(=N)N)C(=O)N[C@@H](Cc3c[nH]c4ccccc34)C(N)=O)nn2)C(C)CCC(O)C(C)CCC(O)C(C)C)C(C)C)nn1)C(=O)N[C@@H](CCC(=O)O)C(=O)N[C@@H](Cc1cnc[nH]1)C(=O)N[C@H](Cc1ccccc1)C(=O)N[C@@H](CCCNC(=N)N)C(=O)N[C@@H](Cc1c[nH]c2ccccc12)C(N)=O (some centres not stated)	–	–	1.7 nM	–
